Experimental findings from PubChem BioAssay (NCI) are described below.

What all share (assay): NCI tumour cell line growth inhibition, 48 h
Assay [1] relates to HCC-2998 colon.
The test system of assay [2] is UACC-62 melanoma.
For assay [3], the system named is SR leukemia.
Assay [4] relates to HOP-62 NSCLC.
Assay [5] relates to IGROV1 ovarian.
Assay [6] deals with COLO 205 colon.
Assay [7] deals with SF-268 CNS.
Assay [8] deals with A549 NSCLC.
The subject of assay [9] is OVCAR-4 ovarian.
The subject of assay [10] is U251 CNS.

Each structure is given as a SMILES string. Values joined by “and” are separate entries in the source; they are usually repeats but may differ in a detail not shown here. Identical values can stand only once.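 In this assay, cells in 96-well plates receive the compound at five concentrations for 48 hours. Endpoints are linearly interpolated between the surrounding concentrations. Abbreviation: GI50, concentration required for 50% inhibition of growth. Definition used: TGI = concentration required for complete inhibition of growth.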

Turning to `c1ccc2c(c1)NC1(N3CCCCC3)CCCCC21` (centres undefined), the TGI in assay [1], in [2], in assay [3], in assay [4], in assay [5] and in assay [6] was above 100 µM each time. In addition, the TGI in [7], in [8], in assay [9] and in assay [10] was above 100 µM in each case.

For `O=c1c2cc(Cl)cc(Cl)c2oc2nc3n(c(=O)c12)CCCS3`, the TGI in [1], in assay [2], in assay [3], in [4], in assay [5] and in assay [6] was above 100 µM each time. Further, the TGI in [7], in [8], in [9] and in [10] was above 100 µM in each case.

As to `O=C(CSc1nc2ccc(I)cc2c(=O)n1Cc1ccccc1)NNC(=O)c1ccccc1`, the TGI in assay [1] is above 100 µM; in [2], above 100 µM; in [3], 23.7 µM; in assay [4], 22.7 µM; in assay [5], 24.7 µM; in assay [6], above 100 µM. In addition, the TGI was 20.8 µM in assay [7], 32.6 µM in assay [8], 57.4 µM in [9] and above 100 µM in assay [10].

For `O=C(CCCl)NNC1=NCCCN1`, the TGI in [1], in assay [2], in [3], in assay [4], in assay [5] and in [6] was above 100 µM in each case. Moreover, the TGI in assay [7], in assay [8], in [9] and in assay [10] was above 100 µM each time.

In the case of `COC(=O)/C=C/C1(O)C=CC(=O)C=C1`, the TGI in assay [1] stood at 21 µM; in assay [2], 7.43 µM; in [3] it was 10.7 µM; in assay [4], 14.4 µM; in assay [5] it was 7.74 µM; in assay [6] it was 23.4 µM. In addition, the TGI in assay [7] is 5.84 µM; in [8], above 47.8 µM; in assay [9], 15.6 µM; in assay [10], above 26.5 µM.

As for `C[C@@H](NC(=O)c1ccc(CNC(=O)/C=C/c2cccc(Oc3ccccc3)c2)cc1)c1ccccc1`, the TGI in [1] is above 100 µM; in assay [2], above 100 µM; in [3], above 100 µM; in [4], above 61.7 µM; in assay [5], above 100 µM; in [6], above 100 µM. The TGI in assay [7] is 78 µM; in assay [8] it was above 57.8 µM; in [9], above 100 µM; in [10] it was above 100 µM.

As for `O=c1cn[nH]c(=S)n1/N=C/c1c[nH]c2ccccc12`, the TGI was above 100 µM in [1]; above 100 µM in assay [2]; above 100 µM in assay [3]; above 100 µM in assay [4]; 31.8 µM in assay [5]; above 100 µM in [6]. Further, the TGI in [7], in assay [8], in assay [9] and in assay [10] was above 100 µM each time.

For `CN1CCN(c2ccc3nc(-c4ccc5nc(-c6ccc(O)cc6)[nH]c5c4)[nH]c3c2)CC1`, the TGI was 1080 µM in assay [1]; 118 µM in assay [2]; 2000 µM in assay [3]; 1040 µM in [4]; 436 µM in assay [5]; 147 µM in assay [6]. In addition, the TGI in [7] was 717 µM; in [8], 756 µM; in assay [9], 609 µM; in [10] it was 799 µM. Besides, the GI50 was 14 µM and 86.9 µM and 28 µM in assay [2]; 4.53 µM in assay [3]; 6.24 µM and 19.5 µM and 6.78 µM in assay [6]; 28.6 µM and 45.4 µM in [7].

Regarding `Cc1ccc2nc(C=Nc3ccc(Cl)cc3)cc(C)c2c1`, the TGI is 6.62 µM in assay [1]; 40 µM in assay [2]; 11.6 µM in assay [3]; 22.5 µM in [4]; 31.3 µM in assay [5]; 6.08 µM in assay [6]. Also, the TGI is 59.2 µM in assay [7], above 100 µM in [8], above 83.1 µM in [9] and 32.9 µM in assay [10].

As for `O=C(O)CCCc1ccc2ccccc2c1`, the TGI in assay [1], in assay [2], in assay [3], in assay [4], in [5] and in [6] was above 100 µM in each case. Besides, the TGI in assay [7], in assay [8], in assay [9] and in assay [10] was above 100 µM in each case.

Take `CSc1ncc2c(n1)sc1c(=O)n(-c3ccccc3)cnc12`: the TGI in [1], in assay [2], in assay [3], in assay [4], in assay [5] and in assay [6] was above 100 µM in each case. Further, the TGI in assay [7], in assay [8], in assay [9] and in assay [10] was above 100 µM each time.

In the case of `CC(OC(=O)C(CC(=O)OC(C)(C)C)NC(=O)OC(C)(C)C)C(=O)OCc1ccccc1` (centres undefined), the TGI in assay [1], in assay [2], in assay [3], in assay [4], in assay [5] and in assay [6] was above 100 µM each time. Further, the TGI in assay [7], in assay [8], in assay [9] and in [10] was above 100 µM in each case.

As for `CC(=O)C1=C(C)N(c2ccc(C)cc2)C2(O)C3=C(C(=O)c4ccccc4C3=O)C(O)=CC12Cl` (centres undefined), the TGI in [1] is 31.6 µM; in assay [2], 26.5 µM; in assay [3] it was above 100 µM; in assay [4] it was above 100 µM; in assay [5] it was 52.6 µM; in assay [6], 63.9 µM. Also, the TGI in [7], in [8], in assay [9] and in [10] was above 100 µM throughout.

As for `COc1cc2c(cc1OCCCCOc1cc3c(cc1OC)C(=O)N1CCC[C@H]1C(=O)N3)N=C[C@@H]1CCCN1C2=O`, the TGI is 26.3 µM in assay [1]; 10.3 µM in assay [2]; 4.59 µM in [3]; 44.5 µM in [4]; 20.7 µM in assay [5]; 7.41 µM in assay [6]. The TGI in assay [7] stood at 14.8 µM; in assay [8], 44.9 µM; in assay [9] it was 27.7 µM; in [10], 14 µM.

For the molecule `CCCCCC/C=C1\CCC(CN2CCOCC2)C1=O` (centres undefined), the TGI in assay [1] worked out at 35.3 µM; in assay [2], 32.1 µM; in assay [3], 13.6 µM; in assay [4] it was 32.8 µM; in [5], 36.6 µM; in [6], 32.3 µM. Also, the TGI in [7] is 43 µM; in [8], above 67.3 µM; in assay [9], 38.8 µM; in assay [10], 29.3 µM.

For `COc1ccc2nc3ccc(OC)cc3c(SCc3ccccc3)c2c1`, the TGI in assay [1], in [2], in assay [3], in assay [4], in assay [5] and in assay [6] was above 100 µM throughout. The TGI in [7], in assay [8], in [9] and in assay [10] was above 100 µM each time.

For the molecule `CCOc1cc2oc(C)cc(=O)c2c(OC)c1C=Nc1ccc(Cn2c(C)nc3ccccc32)cc1`, the TGI in assay [1], in [2], in assay [3], in assay [4], in assay [5] and in assay [6] was above 100 µM each time. Also, the TGI in assay [7], in assay [8], in [9] and in assay [10] was above 100 µM throughout.

As to `O=C1CSC(c2c[nH]c3ccccc23)N1c1ccccc1[N+](=O)[O-]` (centres undefined), the TGI in [1], in assay [2], in assay [3], in assay [4], in [5] and in assay [6] was above 100 µM each time. For the same molecule, the TGI in [7], in assay [8], in assay [9] and in assay [10] was above 100 µM in each case.

Turning to `CCOC(=O)C(NC(=O)c1ccccc1)(Nc1ccc(Cl)cc1C(F)(F)F)C(F)(F)F` (centres undefined), the TGI is above 79.4 µM in assay [1]; 27.4 µM in [2]; above 24 µM in assay [3]; 31.8 µM in [4]; above 64.7 µM in assay [5]; 19.2 µM in [6]. Besides, the TGI in [7] was above 100 µM; in assay [8] it was above 100 µM; in assay [9], above 100 µM; in assay [10], 19 µM.

Turning to `Cc1ccc(S(=O)c2sccc2C=O)cc1` (centres undefined), the TGI is above 100 µM in assay [1]; 55.3 µM in [2]; 84.2 µM in assay [3]; 68.1 µM in assay [4]; 74.3 µM in assay [5]; above 100 µM in assay [6]. The TGI in assay [7] was 82.4 µM; in [8] it was above 100 µM; in [9], 75 µM; in [10] it was 34.6 µM.

For the molecule `CCOC(=O)c1[nH]cc(C)c1-c1ccc2c(-c3ccccc3)nc3ccccc3n12`, the TGI in [1] is 9.97 µM; in [2], 10.8 µM; in [3], 5.34 µM; in [4], 29.9 µM; in assay [5], 16.1 µM; in assay [6], 14.2 µM. For the same molecule, the TGI came to 17.1 µM in assay [7], 18.5 µM in assay [8], 16.1 µM in [9] and 11.8 µM in [10].

`CCN(CC)CCNc1ccc2nnn3c4ccc(O)cc4c(=O)c1c23`: the TGI in [1] amounted to 15.4 µM; in [2], 22.1 µM; in assay [3] it was 1.48 µM; in assay [4], 14 µM; in assay [5], 20.5 µM; in [6], 16.9 µM. The TGI was 21.7 µM in [7], 13.3 µM in [8], 12.6 µM in assay [9] and 18.2 µM in [10].

With `Cc1nnc(N)nc1/C=C/c1c(O)ccc2ccccc12`, the TGI in assay [1] was 45.2 µM; in [2], 85 µM; in assay [3], above 100 µM; in assay [4], above 100 µM; in [5], 32.2 µM; in assay [6], above 100 µM. Further, the TGI in assay [7] is 96.9 µM; in assay [8] it was above 100 µM; in assay [9], 61.1 µM; in assay [10] it was above 100 µM.

Consider `CCOC(=O)C(C(=S)SC)c1nn2c(=O)cc(C)nc2s1` (centres undefined), for which the TGI in assay [1] came to 47.2 µM; in [2], 47.6 µM; in assay [3], 47.1 µM; in assay [4], 42.7 µM; in assay [5], 38.1 µM; in assay [6], 47.5 µM. The TGI was 34 µM in assay [7], 37 µM in assay [8], 58.4 µM in [9] and 30.6 µM in assay [10].

As for `OCCOc1ccccc2cccc1-2`, the TGI in assay [1], in [2], in assay [3], in assay [4], in [5] and in assay [6] was above 100 µM throughout. In addition, the TGI in assay [7], in assay [8], in assay [9] and in assay [10] was above 100 µM each time.

Turning to `CCOC(=O)C(=O)/C(=C/N1C(=O)CC(=O)NC1=S)C(=O)OCC`, the TGI in assay [1], in [2], in [3], in assay [4], in assay [5] and in [6] was above 100 µM in each case. The TGI in assay [7], in assay [8], in [9] and in [10] was above 100 µM each time.

Turning to `CCOC(=O)c1c2c(c(O)c3ccccc3c(O)n(Cc3ccccc3)c1C)C(=O)C=CC2=O`, the TGI in assay [1], in [2], in [3], in assay [4], in assay [5] and in assay [6] was above 100 µM each time. The TGI in [7], in [8], in [9] and in assay [10] was above 100 µM each time.
